Assay results reported in patent publication US11339153B2, “Compounds useful in modulating the farnesoid X receptor and methods of making and using the same” (Inorbit Therapeutics AB, priority 2018, dated 2022).

What was measured:
[1] = biological target: T1, Human FXR receptor (NR1H4) (Homo sapiens, UniProt Q96RI1); experiment: Human Farnesoid X Receptor (NR1H4, FXR) Reporter Assay (Indigo Bioscience kit, luciferase); type: cell-based; conditions: for EC50: Human FXR (NR1H4) reporter assay, 22-24 h incubation; for Efficacy (%): normalized to GW4064 set as 100%
T1 sequence (Q96RI1 1-486): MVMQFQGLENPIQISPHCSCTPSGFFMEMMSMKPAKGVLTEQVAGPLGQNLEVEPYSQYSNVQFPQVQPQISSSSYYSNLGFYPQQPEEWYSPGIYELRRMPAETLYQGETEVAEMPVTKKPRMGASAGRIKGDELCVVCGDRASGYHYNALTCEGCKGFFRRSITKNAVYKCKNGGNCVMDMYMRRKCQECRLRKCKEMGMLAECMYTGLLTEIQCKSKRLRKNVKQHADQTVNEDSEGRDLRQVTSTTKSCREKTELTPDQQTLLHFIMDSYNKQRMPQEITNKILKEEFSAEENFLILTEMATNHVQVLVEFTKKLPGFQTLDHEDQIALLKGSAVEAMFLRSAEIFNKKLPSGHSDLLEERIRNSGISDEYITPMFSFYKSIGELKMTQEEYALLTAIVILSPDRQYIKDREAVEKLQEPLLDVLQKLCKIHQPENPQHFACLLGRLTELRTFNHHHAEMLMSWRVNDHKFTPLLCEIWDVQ
Excerpt: Human Farnesoid X Receptor (NR1H4, FXR) Reporter Assay
Determination of a ligand mediated Ga14 promoter driven transactivation to quantify ligand binding mediated activation of FXR. A FXR Reporter Assay kit was purchased from Indigo Bioscience (#IB00601-32) to determine the potency and efficacy of compounds that can induce FXR activation. The nuclear receptor assay system utilizes non-human mammalian cells engineered to provide constitutive high level expression of Human FXR receptor (NR1H4), a ligand-dependent transcription factor. The reporter cells include luciferase reporter gene functionality linked to an FXR-response promoter. Quantifying changes in luciferase expression in the treated reporter cells provides a sensitive surrogate measure of the changes in FXR activity.
The reporter cells incorporate the cDNA encoding beetle luciferase, a protein that catalyses the mono-oxidation of D-luciferin in a Mg^2+ dependent reaction that consumes O2 and ATP as co-substrates, yielding the products Oxylucifern, AMP, PPi, CO2 and photon (light) emission. Luminescence intensity of the reaction is quantified using a luminometer, and is reported in terms of Relative Light Units (RLU's).
The assay was performed according to the manufacturer's instructions. In brief, the test compounds were weighed and dissolved in phosphate buffer solution as a 10 mM stock and diluted to the appropriate concentration using Compound Screening Medium (CSM). The frozen reporter cells were thawed and suspended in Cell Recovery Medium at 37° C. The compounds were then immediately added to the cell plate and the plate was placed into a 37° C., humidified CO2 incubator for 22-24 h. After incubation, the media was carefully removed, Luciferase detection solution was added and the plate read in a Luminometer. The data was calculated as per kit instructions, with increases in luminescence being directly proportional to increases in compound agonist activity.

[2] = Metabolism in human microsomes; type: in vitro ADME; conditions: 37° C.; for % remaining @ 45 mins of incubation with UDPGA: co-factor UDPGA only; for % remaining @ 45 mins of incubation with UDPGA and NADPH: co-factors UDPGA and NADPH
Description: Metabolism in Human Microsomes
Microsomal mixes (247.5 μL) of human microsomes (1250 μL, 4 mg/ml), potassium phosphate buffer (1250 μL), alamethecin (12.5 μL, 5 mg/ml) and cofactors Nicotinamide Adenine Dinucleotide Phosphate NADPH (1250 μL, 4 mM)/uridine 5′-diphospho-glucuronic acid UDPGA (1250 μL, 4 mM) or UDPGA only were loaded onto a shaker for 10 minutes. The test compound (2.5 μL, 100 μM) was then separately added to both microsomal mixes (i.e., one mix with NADPH and one mix without NADPH), incubated at 37° C. and sampled at predetermined time points. Analysis was performed using a AB SCIEX QTRAP 4500 LC-MS/MS, a Kinetex C18, 50*4.6 mm, 5 μm column and eluting with 10 mM Ammonium Acetate/Methanol.
Table 2 summarizes the % of compound remaining after 45 minutes of incubation with human microsomes either in the presence of co-factors UDPGA and NADPH or UDPGA only.

[3] = Metabolic identification in hepatocytes (human); type: in vitro ADME
Description: (§1) Metabolic Identification in Hepatocytes.
(§2) A 10 mM stock of test compound from Example 4 (sodium 2-(3-((5-cyclopropyl-3-(2-(trifluoromethoxy)phenyl)isoxazol-4-yl)methoxy)-8-azabicyclo[3.2.1]octan-8-yl)-4-fluorobenzo[d]thiazole-6-sulfinate) was prepared in DMSO. 20 μM of final working stock was then prepared by diluting 4 μL of 10 mM stock in 1996 μL of Krebs-Hensleit buffer. 200 μL of hepatocyte cell suspension (2×10^6 cells/mL) was added to TPP 48 well plate and preincubated for 30 min@37° C. in incubator. 200 μL of 20 μM working stock of test compound was added to the cell suspension and incubated in an incubator on vibramax at a shaking speed of 500 rpm. For the 0 min sample, 25 μL of hepatocyte suspension was precipitated with 200 μL of acetonitrile and 25 μL of 20 μM test compound was added. The reaction was stopped at 15, 30, 60, 90, 120 min by precipitating 50 μL of incubation mixture with 200 μL of acetonitrile. The samples were vortexed for 5 min at 1200 rpm and centrifuged at 4000 rpm for 10 min. The supernatant was separated, diluted 2 fold with water and analysed using a HPLC (Shimadzu SIL HTS) and mass spectrometer (5500 Qtrap). Acetonitrile and 0.1% formic acid in Milli-q-water were used as the mobile phase, using a column of either Waters Xbridge C18, 250×3.0 mm, 5.0μ particle size or Phenomnex kinetex 5μ EVO C18 100 A, 50×4.6 mm 5.0μ particle size.
Table 3 summarizes the major metabolites observed when the compound of Example 4 of the invention was incubated in human, dog or mouse hepatocytes.

[4] = Metabolic identification in hepatocytes (dog); type: in vitro ADME
Description: as §1
as §2, with “size. […]” for “size.”

[5] = Metabolic identification in hepatocytes (mouse); type: in vitro ADME
Description: as §1
as §2, with “size. […]” for “size.”

| Structure (SMILES) | EC50 [1] [µM] | Efficacy (%) [1] [%] | % remaining @ 45 mins of incubation with UDPGA [2] [%] | % remaining @ 45 mins of incubation with UDPGA and NADPH [2] [%] | Acyl-Glucuronide [3] | Observed Major Metabolites [3] | major metabolites formed (MS/MS spectra, FIG. 1) ([3]; incubation for 120 mins) | Acyl-Glucuronide [4] | Observed Major Metabolites [4] | Acyl-Glucuronide [5] | Observed Major Metabolites [5] |
| --- | --- | --- | --- | --- | --- | --- | --- | --- | --- | --- | --- |
| O=S([O-])c1cc(F)c2nc(N3[C@@H]4CC[C@H]3C[C@@H](OCc3c(-c5ccccc5OC(F)(F)F)noc3C3CC3)C4)sc2c1.[Na+] [Example 4, Sodium 2-(3-((5-cyclopropyl-3-(2-(trifluoromethoxy)phenyl)isoxazol-4-yl)methoxy)-8-azabicyclo[3.2.1]octan-8-yl)-4-fluorobenzo[d]thiazole-6-sulfinate] | < 0.5 | 94 | 94 | 52 | No | Hydroxy, Alkenyl and Alkenyl-hydroxy | consistent with oxidative metabolism to give the corresponding hydroxy compound | No | Alkenyl-hydroxy | No | Hydroxy, Di-hydroxy and Alkenyl-hydroxy |
| O=S([O-])c1cccc(N2CC(O)(c3ccc(OCc4c(-c5c(Cl)cccc5Cl)noc4C4CC4)cc3Cl)C2)c1.[Na+] [Example 6, Sodium 3-(3-(2-chloro-4-((5-cyclopropyl-3-(2,6-dichlorophenyl)isoxazol-4-yl)methoxy)phenyl)-3-hydroxyazetidin-1-yl)benzenesulfinate] | > 5 | 96 | 92 | 26 | – | – | – | – | – | – | – |
| O=S(O)c1ccc(C2CC(O)(c3ccc(OCc4c(-c5c(Cl)cccc5Cl)noc4C4CC4)cc3Cl)C2)cc1 (stereo not drawn) [Example 7, Sodium 4-(3-(2-chloro-4-((5-cyclopropyl-3-(2,6-dichlorophenyl)isoxazol-4-yl)methoxy)phenyl)-3-hydroxycyclobutyl)benzenesulfinic acid] | > 5 | 89 | 95 | 38 | – | – | – | – | – | – | – |
| O=S(O)c1ccc(C2CC2c2ccc(OCc3c(-c4c(Cl)cccc4Cl)noc3C3CC3)cc2Cl)cc1 (stereo not drawn) [Example 8, Sodium 4-(2-(2-chloro-4-((5-cyclopropyl-3-(2,6-dichlorophenyl)isoxazol-4-yl)methoxy)phenyl)cyclopropyl)benzenesulfinate] | 0.5 to 5 | 127 | – | – | – | – | – | – | – | – | – |
